Target: Factor D (Homo sapiens, UniProt P00746)
Assay: Factor D esterolytic assay
Assay type: biochemical
Details: substrate Z-Lys-SBzl 1.29 mM, 100 mM HEPES, 500 mM NaCl, pH 7.5, 10% DMSO, tested a minimum of three times
Procedure: The IC50 value of a compound (i.e., the concentration of the compound that inhibits 50% of the enzymatic activity) was calculated according to the procedure reported in U.S. Pat. No. 6,653,340 B1, e.g., column 74 (incorporated by reference).
Specifically, the compounds were dissolved in a stock solution of DMSO at 10.0 or 100 mM. A portion of this stock solution was added to assay buffer in a final volume of 50 μL. Controls included buffer alone and enzyme solutions to which DMSO was added. Substrate was added to the reaction wells immediately or after incubation at room temperature. The reaction rates were measured spectrophotometrically by the generation of product at 405 nm for 600 sec. Background absorbance at 690 nm was measured and subtracted from the absorbance at 405 nm for each well.
The reaction rate for enzyme alone was compared to the rate of enzyme in the presence of inhibitor and the percent inhibition was calculated as shown below: […]
An established esterolytic assay for the measurement of Factor D activity and inhibition of Factor D activity was used (Kam, C. M.; McRae, B. J.; Harper, J. W.; Niemann, M. A.; Volanakis, J. E.; Powers, J. C. Human complement proteins D, C2, and B Active site mapping with peptide thioester substrates. J Biol. Chem. 1987, 262, 3444-3451). For this assay Z-Lys-SBzl, 1.29 mM (Kim, S.; Narayana, S. V. L; Volanakis, J. E. Mutational analysis of the substrate binding site of human complement Factor D. Biochemistry. 1994, 33, 14393-14399.) was used as the substrate for Factor D ([…]). Hydrolysis of this compound by Factor D liberated a free sulfhydryl group which is then reacted with 5,5′-dithiobis(2nitrobenzoic acid) producing an intense yellow color (Habeeb, A. F. S. A. Reaction of protein sulfhydryl groups with Ellman's Reagent. Methods in Enzymol. 1976, 25, 457-464). The assays were performed in 96 well microtiter plates and rates of hydrolysis were monitored at 405 nm on a Biotek Synergy H1 plate reader. Hydrolysis rates were reported as change in mOD/min. The assay was conducted in 100 mM HEPES, 500 mM NaCl, pH 7.5 containing 10% DMSO in a final volume of 50 μL per well.
An IC50, a compound concentration which inhibits 50% of the enzymatic activity, was calculated. Compounds in the examples were tested a minimum of three times.

Factor D, sequence (P00746 26-253): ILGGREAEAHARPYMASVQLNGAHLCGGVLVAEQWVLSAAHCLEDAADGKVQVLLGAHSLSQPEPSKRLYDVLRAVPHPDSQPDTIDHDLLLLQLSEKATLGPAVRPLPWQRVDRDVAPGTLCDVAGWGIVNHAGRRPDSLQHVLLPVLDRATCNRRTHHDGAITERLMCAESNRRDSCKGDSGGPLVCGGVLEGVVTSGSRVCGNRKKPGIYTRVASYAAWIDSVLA

Compound | IC50
COc1ccc(CC(=O)O)c(OCc2cc(-c3cccc(C(N)CF)c3)c3occc3c2)c1 (single isomer, unassigned; (+)) [Compound 14k, (+)-2-(2-((7-(3-(1-amino-2-fluoroethyl)phenyl)benzofuran-5-yl)methoxy)-4-methoxyphenyl)acetic acid] | < 1 µM
NCc1cccc(-c2cc(COc3cc(OC(F)(F)F)ccc3CC(=O)O)cc3ccoc23)c1 [Compound 10d, 2-(2-((7-(3-(aminomethyl)phenyl)benzofuran-5-yl)methoxy)-4-(trifluoromethoxy)phenyl)acetic acid] | < 1 µM
CCOC(=O)NCc1ccc(CC(=O)O)c(OCc2cc(-c3cccc(CN)c3)c3occc3c2)c1 [Compound 29c, 2-(2-((7-(3-(aminomethyl)phenyl)benzofuran-5-yl)methoxy)-4-((ethoxycarbonylamino)methyl)phenyl)acetic acid] | < 1 µM
COc1ccc(CC(=O)O)c(OCc2cc(-c3ccnc(CN)c3)c3occc3c2F)c1 [Compound 43d, 2-(2-((7-(2-(aminomethyl)pyridin-4-yl)-4-fluorobenzofuran-5-yl)methoxy)-4-methoxyphenyl)acetic acid] | < 1 µM
Cn1cc(-c2c(COc3ccccc3CC(=O)O)cc(-c3cccc(CN)c3)c3occc23)cn1 [Compound 78e, 2-(2-((7-(3-(aminomethyl)phenyl)-4-(1-methyl-1H-pyrazol-4-yl)benzofuran-5-yl)methoxy)phenyl)acetic acid] | < 1 µM
NCc1nc(-c2cc(COc3ccccc3CC(=O)O)cc3ccoc23)cs1 [Compound 5e, 2-(2-((7-(2-(aminomethyl)thiazol-4-yl)benzofuran-5-yl)methoxy)phenyl)acetic acid] | < 1 µM
CC(C)OC(=O)Nc1ccc(CC(=O)O)c(OCc2cc(-c3cccc(CN)c3)c3occc3c2)c1 [Compound 20h, 2-(2-((7-(3-(aminomethyl)phenyl)benzofuran-5-yl)methoxy)-4-((isopropoxycarbonyl)amino)phenyl)acetic acid] | < 1 µM
NC(=O)c1cc(-c2cc(COc3ccccc3CC(=O)O)cc3ccoc23)cs1 [Compound 84c, 2-(2-((7-(5-carbamoylthiophen-3-yl)benzofuran-5-yl)methoxy)phenyl)acetic acid] | > 10 µM
NCc1cc(-c2cc(COc3ccccc3CC(=O)O)cc3ccoc23)co1 [Compound 50e, 2-(2-((7-(5-(aminomethyl)furan-3-yl)benzofuran-5-yl)methoxy)phenyl)acetic acid] | > 10 µM
NCc1cccc(-c2cc(COc3ccccc3CC(=O)O)cc3c(F)coc23)c1 [Compound 44d, 2-(2-((7-(3-(aminomethyl)phenyl)-3-fluorobenzofuran-5-yl)methoxy)phenyl)acetic acid] | < 1 µM
CC(N)c1ccc(CC(=O)O)c(OCc2cc(-c3cccc(CN)c3)c3occc3c2)c1 (single isomer, unassigned; (-)) [Compound 61a, (−)-2-(4-(1-aminoethyl)-2-((7-(3-(aminomethyl)phenyl)benzofuran-5-yl)methoxy)phenyl)acetic acid] | < 1 µM
CCNCc1nccc(-c2cc(COc3ccccc3CC(=O)O)cc3ccoc23)c1F [Compound 37d, 2-(2-((7-(2-((ethylamino)methyl)-3-fluoropyridin-4-yl)benzofuran-5-yl)methoxy)phenyl)acetic acid] | < 1 µM
CC(=O)c1ccc(CC(=O)O)c(OCc2cc(-c3ccnc(CN)c3)c3oc(F)cc3c2)c1 [Compound 74d, 2-(4-acetyl-2-((7-(2-(aminomethyl)pyridin-4-yl)-2-fluorobenzofuran-5-yl)methoxy)phenyl)acetic acid] | < 1 µM
CCOC(=O)NCc1cc2cc(COc3ccccc3CC(=O)O)cc(-c3cccc(CN)c3)c2o1 [Compound 25h, 2-(2-((7-(3-(aminomethyl)phenyl)-2-(((ethoxycarbonyl)amino)methyl)benzofuran-5-yl)methoxy)phenyl)acetic acid] | < 1 µM
CCOC(=O)NC(C)c1ccc(CC(=O)O)c(OCc2cc(-c3cccc(CN)c3)c3occc3c2)c1 (single isomer, unassigned; (-)) [Compound 55e, (−)-2-(2-((7-(3-(aminomethyl)phenyl)benzofuran-5-yl)methoxy)-4-(1-((ethoxycarbonyl)amino)ethyl)phenyl)acetic acid] | < 1 µM
CCNCc1cccc(-c2cc(COc3ccccc3CC(=O)O)cc3ccoc23)c1 [Compound 21c, 2-(2-((7-(3-((ethylamino)methyl)phenyl)benzofuran-5-yl)methoxy)phenyl)acetic acid] | < 1 µM
CC(C)(C)OC(=O)Cc1ccccc1OCc1cc(-c2ccnc(CN)c2F)c2occc2c1 [Compound 39e, tert-butyl 2-(2-((7-(2-(aminomethyl)-3-fluoropyridin-4-yl)benzofuran-5-yl)methoxy)phenyl)acetate] | 1 to 10 µM
CC(=O)OCc1cc2cc(COc3ccccc3CC(=O)O)cc(-c3cccc(CN)c3)c2o1 [Compound 23h, 2-(2-((2-(acetoxymethyl)-7-(3-(aminomethyl)phenyl)benzofuran-5-yl)methoxy)phenyl)acetic acid] | < 1 µM
Cn1ccc(COc2c(COc3ccccc3CC(=O)O)cc(-c3cccc(CN)c3)c3occc23)n1 [Compound 79g, 2-(2-((7-(3-(aminomethyl)phenyl)-4-((1-methyl-1H-pyrazol-3-yl)methoxy)benzofuran-5-yl)methoxy)phenyl)acetic acid] | < 1 µM
NCc1cccc(-c2cc(COc3cc(C(F)(F)F)ccc3CC(=O)O)cc3ccoc23)c1F [Compound 58b, 2-(2-((7-(3-(aminomethyl)-2-fluorophenyl)benzofuran-5-yl)methoxy)-4-(trifluoromethyl)phenyl)acetic acid] | < 1 µM
CC(N)c1nc(-c2cc(COc3ccccc3CC(=O)O)cc3ccoc23)cs1 (stereo not drawn) [Compound 7e, 2-(2-((7-(2-(1-aminoethyl)thiazol-4-yl)benzofuran-5-yl)methoxy)phenyl)acetic acid] | 1 to 10 µM
NCc1cccc(-c2cc(COc3cc(C(F)(F)F)ccc3CC(=O)O)cc3cc(F)oc23)c1 [Compound 53d, 2-(2-((7-(3-(aminomethyl)phenyl)-2-fluorobenzofuran-5-yl)methoxy)-4-(trifluoromethyl)phenyl)acetic acid] | < 1 µM
CC(C)C(=O)Nc1ccc(CC(=O)O)c(OCc2cc(-c3cccc(CN)c3)c3occc3c2)c1 [Compound 70f] | < 1 µM
NCc1cccc(-c2cc(COc3cc(CNP(=O)(OCc4ccccc4)OCc4ccccc4)ccc3CC(=O)O)cc3ccoc23)c1 [Compound 34c, 2-(2-((7-(3-(aminomethyl)phenyl)benzofuran-5-yl)methoxy)-4-((bis(benzyloxy)phosphorylamino)methyl)phenyl)acetic acid] | < 1 µM
CC(Oc1ccccc1CC(=O)O)c1cc(-c2cccc(CN)c2)c2occc2c1 (single isomer, unassigned; (-)) [Compound 77g, (−)-2-(2-(1-(7-(3-(aminomethyl)phenyl)benzofuran-5-yl)ethoxy)phenyl)acetic acid] | < 1 µM
NCc1nccc(-c2cc(COc3ccccc3CC(=O)O)cc3c2OCC3)c1F [Compound 40g, 2-(2-((7-(2-(aminomethyl)-3-fluoropyridin-4-yl)-2,3-dihydrobenzofuran-5-yl)methoxy)phenyl)acetic acid] | < 1 µM
CC(=O)c1ccc(CC(=O)O)c(OCc2cc(-c3cccc(CN)c3F)c3oc(F)cc3c2)c1 [Compound 76e, 2-(4-acetyl-2-((7-(3-(aminomethyl)-2-fluorophenyl)-2-fluorobenzofuran-5-yl)methoxy)phenyl)acetic acid] | < 1 µM
CC(C)CC(=O)NCc1ccc(CC(=O)O)c(OCc2cc(-c3cccc(CN)c3)c3occc3c2)c1 [Compound 28c, 2-(2-((7-(3-(aminomethyl)phenyl)benzofuran-5-yl)methoxy)-4-((3-methylbutanamido)methyl)phenyl)acetic acid] | < 1 µM
NCc1cccc(-c2cc(COc3cc(CN)ccc3CC(=O)O)cc3c(C(F)(F)F)coc23)c1 [Compound 31d, 2-(4-(aminomethyl)-2-((7-(3-(aminomethyl)phenyl)-3-(trifluoromethyl)benzofuran-5-yl)methoxy)phenyl)acetic acid] | < 1 µM
NCc1csc(-c2cc(COc3ccccc3CC(=O)O)cc3ccoc23)n1 [Compound 6e, 2-(2-((7-(4-(aminomethyl)thiazol-2-yl)benzofuran-5-yl)methoxy)phenyl)acetic acid] | < 1 µM

Source: US20250275991A1, “ORAL COMPLEMENT FACTOR D INHIBITORS” (BioCryst Pharmaceuticals, Inc, priority 2019, published 2025)
